Source: patent US7078414B2, “Derivatives of 3-guanidinocarbonyl-1-heteroaryl-pyrrole, preparation process and intermediates of this process, their use as medicaments, and pharmaceutical compositions comprising them” (Sanofi-Aventis Deutschland GmbH, priority 2002, dated 2006)
Structures can show the parent of a compound that is named as a salt.

Columns and labels:
NHE-1 subtype = target: T1, NHE-1 subtype (Homo sapiens, UniProt P19634); test: NHE inhibition FLIPR test (intracellular pH recovery, BCECF) in transfected LAP-1 cell lines expressing NHE subtypes; type: cell-based; details: transfected LAP-1 cells expressing NHE-1 subtype, read-out: IC50 (NHE1)
T1 construct: expressed in transfected cells; host or cells: LAP-1 cells (parental line has no endogenous NHE activity), stably transfected and kept under G418 selection
Experimental: The NHE inhibitory activities (IC50 values) of the compounds according to the invention were determined by a FLIPR test.
The test is performed in the FLIPR (Fluorescent Imaging Plate Reader) equipped with clear-bottomed and black-walled 96-well microtitration plates.
The growth medium for the transfected cells (Iscove +10% foetal calf serum) also comprises G418 as selection antibiotic to ensure the presence of transfected sequences.
The actual test begins by eliminating the growth medium and adding 100 μl of loading buffer per well (5 μM of BCECF-AM [2′,7′-bis(2-carboxyethyl)-5-(6)-carboxyfluoresceine acetoxymethyl ester] in 20 mM of NH4Cl, 115 mM of choline chloride, 1 mM of CaCl2, 5 mM of KCl, 20 mM of HEPES and 5 mM of glucose; pH 7.4 (adjusted with KOH). The cells are then incubated for 20 minutes at 37° C. This incubation results in the loading of the fluorescent dye into the cells, the fluorescence intensity of which depends on the pHi, and on the NH4Cl, which results in a slight basification of the cells.
The precursor BCECF-AM, a non-fluorescent dye, is, as an ester, capable of crossing the membrane. The actual dye, which is incapable of crossing the membrane, is released inside the cell by esterases.
After this 20-minute incubation, the loading buffer, which comprises NH4Cl and free BCECF-AM, is removed by washing three times in the cell washing device (Tecan Columbus), each wash being performed with 400 μL of washing buffer (133.8 mM of choline chloride, 4.7 mM of KCl, 1.25 mM of MgCl2, 1.25 mM of CaCl2, 0.97 mM of K2HPO4, 0.23 mM of KH2PO4, 5 mM of HEPES and 5 mM of glucose; pH 7.4 (adjusted with KOH)). The residual volume remaining in the wells is 90 μL (possibly between 50 and 125 μL). This washing step removes the free BCECF-AM and results in an intracellular acidification (pHi of 6.3–6.4) due to the removal of the external ammonium ions.
As the equilibrium of the intracellular ammonium with the aqueous ammonia and the protons, by removal of the extracellular ammonium and by the subsequent immediate crossing of the aqueous ammonia across the cell membrane, is disrupted, the washing process results in intracellular protons remaining, which is the cause of the intracellular acidification. This acidification can result finally in the death of the cells if it lasts long enough. It is important here for the washing buffer to be free of sodium (<1 mM), otherwise the extracellular sodium ions would result in an immediate increase in the pHi on account of the activity of the cloned NHE isoforms. It is also important for all the buffers used (loading buffer, washing buffer and regeneration buffer) not to contain any HCO3-ions, otherwise the presence of bicarbonate would result in the activation of bicarbonate-dependent systems that disrupt the pHi regulation, which systems are contained in the LAP-1 parental cell line.
The microtiter plates containing acidified cells are then transferred (up to 20 minutes after the acidification) to the FLIPR. In the FLIPR, the intracellular fluorescent dye is activated with light of a wavelength of 488 nm, which is generated by an argon laser, and the measuring parameters (laser power, illumination time and diaphragm of the […] camera integrated into the FLIPR) are chosen such that the average value of the f fluorescent signal per well is between 30,000 and 35,000 relative fluorescence units.
The actual measurement in the FLIPR starts with a photograph being taken by the CCD camera every two seconds under software control. After 10 seconds, the increase in the intracellular pH is initiated by adding 90 μL of regeneration buffer (133.8 mM of NaCl, 4.7 mM of KCl, 1.25 mM of MgCl2, 1.25 mM of CaCl2, 0.97 mM of K2HPO4, 0.23 mM of KH2PO4, 10 mM of HEPES and 5 mM of glucose; pH 7.4 (adjusted with NaOH)) using a 96-well pipette device incorporated into the FLIPR.
Some wells, to which is added pure regeneration buffer, serve as positive controls (100% NHE activity). […]

T1 sequence (P19634 whole entry): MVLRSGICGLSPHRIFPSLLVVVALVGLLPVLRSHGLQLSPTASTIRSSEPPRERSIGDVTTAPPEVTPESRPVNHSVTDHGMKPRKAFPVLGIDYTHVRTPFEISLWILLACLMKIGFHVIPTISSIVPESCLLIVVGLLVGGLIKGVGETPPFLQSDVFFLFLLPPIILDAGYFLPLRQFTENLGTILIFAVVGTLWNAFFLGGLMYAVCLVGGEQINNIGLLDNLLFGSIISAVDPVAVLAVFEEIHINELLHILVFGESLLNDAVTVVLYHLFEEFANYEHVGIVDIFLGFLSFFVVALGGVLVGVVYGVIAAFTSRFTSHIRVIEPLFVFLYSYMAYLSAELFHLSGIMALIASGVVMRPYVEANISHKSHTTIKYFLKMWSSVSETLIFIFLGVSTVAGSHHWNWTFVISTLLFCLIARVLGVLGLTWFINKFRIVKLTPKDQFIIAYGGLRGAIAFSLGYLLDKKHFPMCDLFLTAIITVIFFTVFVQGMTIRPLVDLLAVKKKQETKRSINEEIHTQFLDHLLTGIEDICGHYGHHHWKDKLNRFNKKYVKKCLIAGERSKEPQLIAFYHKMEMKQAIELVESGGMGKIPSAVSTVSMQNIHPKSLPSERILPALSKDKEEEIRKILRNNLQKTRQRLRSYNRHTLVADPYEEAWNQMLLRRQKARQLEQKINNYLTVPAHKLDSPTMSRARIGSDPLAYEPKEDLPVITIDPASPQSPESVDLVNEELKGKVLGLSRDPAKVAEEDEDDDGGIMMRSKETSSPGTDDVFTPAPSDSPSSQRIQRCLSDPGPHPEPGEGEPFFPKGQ

| SMILES | IC50 (NHE-1 subtype) | melting point |
| --- | --- | --- |
| NC(N)=NC(=O)c1ccn(-c2nccc3ccccc23)c1 [Example 5, 3-Guanidinocarbonyl-1-(isoquinol-1-yl)-1H-pyrrole hydrochloride] | 51 nM | – |
| N=C(N)NC(=O)c1cn(-c2ccnc3ccccc23)cc1C(F)(F)F [Example 14, 4-Trifluoromethyl-3-guanidinocarbonyl-1-(quinolin-4-yl)-1H-pyrrole] | 2.3 nM | – |
| N=C(N)NC(=O)c1ccn(-c2cccc3cccnc23)c1 [Example 7, 3-Guanidinocarbonyl-1-(quinol-8-yl)-1H-pyrrole] | 90 nM | 155 °C |
| Cc1cn(-c2ccnc3cc(Cl)ccc23)cc1C(=O)N=C(N)N [Example 18, N-[1-(7-Chloro-quinolin-4-yl)-4-methyl-1H-pyrrole-3-carbonyl]-guanidine trifluoroacetate] | 1.6 nM | – |
| NC(N)=NC(=O)c1ccn(-c2ccnc3cc(Cl)ccc23)c1 [Example 19, N-[1-(7-Chloro-quinolin-4-yl)-1H-pyrrole-3-carbonyl]-guanidinetrifluoracetate] | 42.9 nM | – |
| Cc1cc(-n2cc(C)c(C(=O)N=C(N)N)c2)c2ccccc2n1 [Example 16, N-[4-Methyl-1-(2-methyl-quinolin-4-yl)-1H-pyrrole-3-carbonyl]-guanidine trifluoroacetate] | 3.1 nM | – |
| Cc1cn(-c2ccccn2)cc1C(=O)NC(=N)N [Example 26, N-(4-Methyl-1-pyridin-2-yl-1H-pyrrole-3-carbonyl)-guanidine] | 3.6 nM | – |
| NC(N)=NC(=O)c1ccn(-c2cnnc3ccccc23)c1 [Example 24, N-(1-Cinnolin-4-yl-1H-pyrrole-3-carbonyl)-guanidine trifluoroacetate] | 222 nM | – |
| NC(N)=NC(=O)c1ccn(-c2ccnc3ccccc23)c1 (as salt: hydrochloride) [Example 2, 3-Guanidinocarbonyl-1-(quinol-4-yl)-1H-pyrrole dihydrochloride] | – | 244 °C |
| Cc1cn(-c2cncnc2)cc1C(=O)NC(=N)N [Example 28, N-(4-Methyl-1-pyrimidin-5-yl-1H-pyrrole-3-carbonyl)-guanidine] | 192 nM | – |
| Cl.N=C(N)NC(=O)c1cn(-c2ccnc3ccccc23)cc1C1CC1 [Example 12, 4-Cyclopropyl-3-guanidinocarbonyl-1-(quinolin-4-yl)-1H-pyrrole dihydrochloride] | 0.5 nM | 185 °C |
| Cc1cn(-c2ncccn2)cc1C(=O)NC(=N)N [Example 25, N-(4-Methyl-1-pyrimidin-2-yl-1H-pyrrole-3-carbonyl)-guanidine] | – | 208.5 °C |
| Cc1cn(-c2cccnc2)cc1C(=O)NC(=N)N [Example 27, N-(4-Methyl-1-pyridin-3-yl-1H-pyrrole-3-carbonyl)-guanidine] | 0.6 nM | – |
| Cc1cn(-c2ccnc3c(F)cccc23)cc1C(=O)N=C(N)N [Example 22, N-[1-(8-Fluoro-quinolin-4-yl)-4-methyl-1H-pyrrole-3-carbonyl]-guanidine trifluoroacetate] | 0.2 nM | – |
| NC(N)=NC(=O)c1ccn(-c2ccnc3ccccc23)c1 [Example 2, 3-Guanidinocarbonyl-1-(quinol-4-yl)-1H-pyrrole dihydrochloride] | 22 nM | – |
| N=C(N)NC(=O)c1cn(-c2nccc3ccccc23)cc1C(F)(F)F [Example 15, 4-Trifluoromethyl-3-guanidinocarbonyl-1-(isoquinolin-1-yl)-1H-pyrrole hydrochloride] | 2.6 nM | – |
| Cc1cc(-n2ccc(C(=O)N=C(N)N)c2)c2ccccc2n1 [Example 17, N-[1-(2-Methyl-quinolin-4-yl)-1H-pyrrole-3-carbonyl]-guanidinetrifluoroacetate] | 10.7 nM | – |
| Cc1cn(-c2ccnc3ccc(F)cc23)cc1C(=O)N=C(N)N [Example 20, N-[1-(6-Fluoro-quinolin-4-yl)-4-methyl-1H-pyrrole-3-carbonyl]-guanidine trifluoroacetate] | 0.8 nM | – |
| NC(N)=NC(=O)c1ccn(-c2ccnc3ccc(F)cc23)c1 [Example 21, N-[1-(6-Fluoro-quinolin-4-yl)-1H-pyrrole-3-carbonyl]-guanidinetrifluoroacetate] | 29 nM | – |
| N=C(N)NC(=O)c1ccn(-c2cccc3ncccc23)c1 [Example 6, 3-Guanidinocarbonyl-1-(quinol-5-yl)-1H-pyrrole] | 44 nM | 260 °C |
| NC(N)=NC(=O)c1ccn(-c2ccnc3c(F)cccc23)c1 [Example 23, N-[1-(8-Fluoro-quinolin-4-yl)-1H-pyrrole-3-carbonyl]-guanidinetrifluoroacetate] | 97.7 nM | – |

Next, values leading:

| IC50 (NHE-1 subtype) | melting point | SMILES |
| --- | --- | --- |
| 96 nM | – | Cc1c(C(=O)NC(=N)N)ccn1-c1ccc2ccccc2n1 [Example 4, 3-Guanidinocarbonyl-2-methyl-1-(quinol-2-yl)-1H-pyrrole hydrochloride] |
| 0.16 nM | 247 °C | Cc1cn(-c2nccc3ccccc23)cc1C(=O)NC(=N)N.Cl [Example 10, 3-Guanidinocarbonyl-1-(isoquinol-1-yl)4-methyl-1H-pyrrole hydrochloride] |
| 17 nM | 279.5 °C | CC(=O)O.Cc1cn(-c2cnc3ccccc3c2)cc1C(=O)NC(=N)N [Example 30, N-(4-Methyl-1-quinolin-3-yl-1H-pyrrole-3-carbonyl)-guanidine hydrogenacetate] |
| 19 nM | – | Cc1c(C(=O)NC(=N)N)cn(-c2ccnc3ccccc23)c1C [Example 11, 3-Guanidinocarbonyl-4,5-dimethyl-1-(quinol-4-yl)-1H-pyrrole dihydrochloride] |
| – | 250 °C | Cc1c(C(=O)NC(=N)N)ccn1-c1ccc2ccccc2n1 (as salt: hydrochloride) [Example 4, 3-Guanidinocarbonyl-2-methyl-1-(quinol-2-yl)-1H-pyrrole hydrochloride] |
| 49 nM | 258 °C | Cl.NC(N)=NC(=O)c1ccn(-c2ccc3ccccc3n2)c1 [Example 1, 3-Guanidinocarbonyl-1-(quinol-2-yl)-1H-pyrrole hydrochloride] |
| 67 nM | – | Cc1c(C(=O)N=C(N)N)ccn1-c1ccnc2ccccc12 [Example 3, 3-Guanidinocarbonyl-2-methyl-1-(quinol-4-yl)-1H-pyrrole dihydrochloride] |
| 0.25 nM | 215 °C | Cc1cn(-c2ccnc3ccccc23)cc1C(=O)NC(=N)N [Example 9, 3-Guanidinocarbonyl-4-methyl-1-(quinol-4-yl)-1H-pyrrole] |
| 121 nM | – | N=C(N)NC(=O)c1ccn(-c2cncc3ccccc23)c1 [Example 8, 3-Guanidinocarbonyl-1-(isoquinol-4-yl)-1H-pyrrole] |
| – | 240 °C | Cc1c(C(=O)N=C(N)N)ccn1-c1ccnc2ccccc12 (as salt: hydrochloride) [Example 3, 3-Guanidinocarbonyl-2-methyl-1-(quinol-4-yl)-1H-pyrrole dihydrochloride] |
| 0.1 nM | 240 °C | Cc1cn(-c2cccc3ncccc23)cc1C(=O)NC(=N)N.Cl [Example 13, 3-Guanidinocarbonyl-4-methyl-1-(quinolin-5-yl)-1H-pyrrole hydrochloride] |
| 4.3 nM | 264.4 °C | CC(=O)O.Cc1cn(-c2ccc3ccccc3n2)cc1C(=O)NC(=N)N [Example 29, N-(4-Methyl-1-quinolin-2-yl-1H-pyrrole-3-carbonyl)-guanidine hydrogenacetate] |
